This series is described as follows: Serum concentration of leflunomide after transdermal or oral administration to adjuvant arthritis rats, LC-MS/MS (Experimental Example 5B). The following applies: rat, leflunomide in serum, single oral administration 20 mg/kg. In kind it is in vivo. Here is the method: The dosage form for external application of leflunomide as shown in Example was administered once to adjuvant arthritis rats prepared in the same manner as in Experimental Example 1B and the concentration of leflunomide in serum was measured using LC-MS/MS. In addition, the concentration in serum on simultaneous oral administration of leflunomide once (20 mg/kg) was measured and compared.

As to `Cc1oncc1C(=O)Nc1ccc(C(F)(F)F)cc1` [leflunomide, N-(4′-trifluoromethylphenyl)-5-methylisoxazole-4-carboxamide], the AUC(0-t) (read-out: AUC, area under the drug concentration-time curve [AUC(0−T)]) was 600 ng·h/mL. For the setting “read-out: Cmax, maximum drug concentration”, the Cmax turned out to be 502 ng/mL. The Tmax (read-out: tmax, times to reach maximum drug concentration) was 30 min.

For the origin of these results see patent publication US20050158371A1, “Novel external agent” (Sumitomo Pharmaceuticals Co., Ltd., priority 2002, published 2005).
